From ChEMBL document CHEMBL5370585, “Exploration and Biological Evaluation of 1,3-Diamino-7H-pyrrol[3,2-f]quinazoline Derivatives as Dihydrofolate Reductase Inhibitors” (J Med Chem, 2023)
In brackets after ≈: the same amount, converted by molar mass. Activity calls are given as the source filed them. No cut-off for these calls is given here.

Tests used:
Klebsiella pneumoniae [1] = experiment: Antibacterial activity against Klebsiella pneumoniae ATCC 700603 assessed as reduction in microbial growth incubated for 16 to 18 hrs by CLSI based broth dilution method; format: functional; conditions: time 16-18 hrs
EMT6 [2] = experiment: Antitumor activity against mouse EMT6 cells xenografted in BALB/c mouse model assessed as tumor growth inhibition at 5 mg/kg,ip administered every 3 days for 14 consecutive days relative to control; format: functional; parameters: scale not given: the % may be the effect or the level left; conditions: time 14 day
Acinetobacter baumannii [3] = experiment: Antibacterial activity against Acinetobacter baumannii 20-2 incubated for 16 to 18 hrs by CLSI based broth dilution method; format: functional; conditions: time 16-18 hrs
Staphylococcus aureus [4] = experiment: Antibacterial activity against Staphylococcus aureus ATCC 29213 incubated for 16 to 18 hrs in presence of human plasma by CLSI based broth dilution method; format: functional; conditions: time 16-18 hrs
Escherichia coli [5] = experiment: Antibacterial activity against Escherichia coli ATCC 25922 incubated for 16 to 18 hrs in absence of human plasma by CLSI based broth dilution method; format: functional; conditions: time 16-18 hrs
Pseudomonas aeruginosa = experiment: Antibacterial activity against Pseudomonas aeruginosa ATCC 27853 incubated for 16 to 18 hrs by CLSI based broth dilution method; format: functional; conditions: time 16-18 hrs
Staphylococcus aureus [6] = experiment: Antibacterial activity against Staphylococcus aureus ATCC 29213 incubated for 16 to 18 hrs by CLSI based broth dilution method; format: functional; conditions: time 16-18 hrs
Escherichia coli [7] = experiment: Antibacterial activity against Escherichia coli ATCC BAA-2340 incubated for 16 to 18 hrs by CLSI based broth dilution method; format: functional; conditions: time 16-18 hrs
Enterococcus = experiment: Antibacterial activity against Vancomycin-resistant Enterococcus ATCC 51575 incubated for 16 to 18 hrs by CLSI based broth dilution method; format: functional; conditions: time 16-18 hrs
MCF7 = experiment: Cytotoxicity against human MCF7 cells measured after 72 hrs by MTT assay; format: functional, cell-based; conditions: MCF7, 72 h
Enterococcus faecalis [8] = experiment: Antibacterial activity against Enterococcus faecalis EFA19-2 incubated for 16 to 18 hrs by CLSI based broth dilution method; format: functional; conditions: time 16-18 hrs
Enterococcus faecalis [9] = experiment: Antibacterial activity against Enterococcus faecalis ATCC 29212 incubated for 16 to 18 hrs by CLSI based broth dilution method; format: functional; conditions: time 16-18 hrs
EMT6 [10] = experiment: Antitumor activity against mouse EMT6 cells xenografted in BALB/c mouse model assessed as tumor growth inhibition at 10 mg/kg,ip administered every 3 days for 14 consecutive days relative to control; format: functional; parameters: scale not given: the % may be the effect or the level left; conditions: time 14 day
[11] = biological target: T1, Dihydrofolate reductase (Homo sapiens) (UniProt P00374); experiment: Inhibition of human DHFR at 1 uM incubated for 10 mins in presence of NADPH by colorimetry based analysis relative to control
T1 sequence (whole entry): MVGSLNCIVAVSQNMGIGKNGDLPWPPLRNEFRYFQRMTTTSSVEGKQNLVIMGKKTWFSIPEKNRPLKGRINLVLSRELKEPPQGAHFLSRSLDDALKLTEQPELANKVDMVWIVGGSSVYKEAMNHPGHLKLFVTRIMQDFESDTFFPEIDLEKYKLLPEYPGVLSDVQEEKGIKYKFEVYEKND

EMT6 [12] = experiment: Antitumor activity against mouse EMT6 cells xenografted in ip dosed BALB/c mouse model assessed as delay in tumor progression administered every 3 days for 14 consecutive days; format: functional, organism-based; conditions: time 14.0 day
Escherichia coli [13] = experiment: Antibacterial activity against Escherichia coli ATCC 25922 incubated for 16 to 18 hrs in presence of human plasma by CLSI based broth dilution method; format: functional; conditions: time 16-18 hrs
[14] = Toxicity in BALB/c mouse xenografted with mouse EMT6 cells assessed as effect on body weight at 5 mg/kg, ip measured on day 14 (reference value: 21.6 +/-0.6g); format: organism-based; conditions: in vivo, 336 h, time 14 day
[15] = Toxicity in BALB/c mouse xenografted with mouse EMT6 cells assessed as effect on body weight at 10 mg/kg, ip measured on day 14 (reference value: 21.6 +/-0.6g); format: organism-based; conditions: in vivo, 336 h, time 14 day
Staphylococcus aureus [16] = experiment: Antibacterial activity against methicillin-sensitive Staphylococcus aureus 15-2 incubated for 16 to 18 hrs by CLSI based broth dilution method; format: functional; conditions: time 16-18 hrs
Staphylococcus aureus [17] = experiment: Antibacterial activity against methicillin-resistant Staphylococcus aureus ATCC 33591 incubated for 16 to 18 hrs by CLSI based broth dilution method; format: functional; conditions: time 16-18 hrs
Staphylococcus aureus [18] = experiment: Antibacterial activity against methicillin-sensitive Staphylococcus aureus ATCC 29213 incubated for 16 to 18 hrs by CLSI based broth dilution method; format: functional; conditions: time 16-18 hrs
Acinetobacter baumannii [19] = experiment: Antibacterial activity against Acinetobacter baumannii ATCC 19606 incubated for 16 to 18 hrs by CLSI based broth dilution method; format: functional; conditions: time 16-18 hrs
Staphylococcus aureus [20] = experiment: Antibacterial activity against methicillin-resistant Staphylococcus aureus ATCC 43300 incubated for 16 to 18 hrs in absence of human plasma by CLSI based broth dilution method; format: functional; conditions: time 16-18 hrs
Staphylococcus aureus [21] = experiment: Antibacterial activity against methicillin-sensitive Staphylococcus aureus 15-1 incubated for 16 to 18 hrs by CLSI based broth dilution method; format: functional; conditions: time 16-18 hrs
Staphylococcus aureus [22] = experiment: Antibacterial activity against vancomycin intermediate Staphylococcus aureus ATCC 700699 incubated for 16 to 18 hrs by CLSI based broth dilution method; format: functional; conditions: time 16-18 hrs
Enterococcus faecalis [23] = experiment: Antibacterial activity against Enterococcus faecalis EFA19-1 incubated for 16 to 18 hrs by CLSI based broth dilution method; format: functional; conditions: time 16-18 hrs
EMT6 [24] = experiment: Antitumor activity against mouse EMT6 cells xenografted in BALB/c mouse model assessed as tumor weight at 5 mg/kg,ip administered every 3 days for 14 consecutive days (reference value: 1.53 +/-0.26g); format: functional; conditions: time 14 day
Staphylococcus aureus [25] = experiment: Antibacterial activity against vancomycin intermediate Staphylococcus aureus ATCC 700788 incubated for 16 to 18 hrs by CLSI based broth dilution method; format: functional; conditions: time 16-18 hrs
Klebsiella pneumoniae [26] = experiment: Antibacterial activity against Klebsiella pneumoniae 15-1 assessed as reduction in microbial growth incubated for 16 to 18 hrs by CLSI based broth dilution method; format: functional; conditions: time 16-18 hrs
HGC-27 = experiment: Cytotoxicity against human HGC-27 cells measured after 72 hrs by MTT assay; format: functional, cell-based; conditions: HGC-27, 72 h
[27] = tested on: Staphylococcus epidermidis; experiment: Antibacterial activity against Staphylococcus epidermidis ATCC 12228 incubated for 16 to 18 hrs by CLSI based broth dilution method; format: functional; conditions: time 16-18 hrs
HCT-116 = experiment: Cytotoxicity against human HCT-116 cells measured after 72 hrs by MTT assay; format: functional, cell-based; conditions: HCT-116, 72 h
Staphylococcus aureus [28] = experiment: Antibacterial activity against methicillin-sensitive Staphylococcus aureus ATCC 25923 incubated for 16 to 18 hrs by CLSI based broth dilution method; format: functional; conditions: time 16-18 hrs
[29] = Toxicity in BALB/c mouse xenografted with mouse EMT6 cells assessed as effect on body weight at 10 mg/kg, ip measured on day 1 (reference value: 18.5 +/-0.5g); format: organism-based; conditions: in vivo, 24 h, time 1 day
Staphylococcus aureus [30] = experiment: Antibacterial activity against methicillin-resistant Staphylococcus aureus ATCC 43300 assessed as inhibition of bacterial growth at upto 8 times MIC measured upto 28 hrs by time kill curve assay; format: functional, organism-based
HepG2 = experiment: Cytotoxicity against human HepG2 cells measured after 72 hrs by MTT assay; format: functional, cell-based; conditions: HepG2, 72 h
Acinetobacter baumannii [31] = experiment: Antibacterial activity against Acinetobacter baumannii ATCC 19606 assessed as reduction in microbial growth incubated for 16 to 18 hrs by CLSI based broth dilution method; format: functional; conditions: time 16-18 hrs
Escherichia coli [32] = experiment: Antibacterial activity against Escherichia coli ATCC 25922 assessed as inhibition of bacterial growth at upto 8 times MIC measured upto 28 hrs by time kill curve assay; format: functional, organism-based
Escherichia coli [33] = experiment: Antibacterial activity against Escherichia coli ATCC 25922 incubated for 16 to 18 hrs by CLSI based broth dilution method; format: functional; conditions: time 16-18 hrs
Escherichia coli [34] = experiment: Antibacterial activity against Escherichia coli ECO 15-1 incubated for 16 to 18 hrs by CLSI based broth dilution method; format: functional; conditions: time 16-18 hrs
[35] = Toxicity in BALB/c mouse xenografted with mouse EMT6 cells assessed as effect on body weight at 5 mg/kg, ip measured on day 1 (reference value: 18.5 +/-0.5g); format: organism-based; conditions: in vivo, 24 h, time 1 day
Staphylococcus aureus [36] = experiment: Antibacterial activity against methicillin-resistant Staphylococcus aureus ATCC 43300 incubated for 16 to 18 hrs in presence of human plasma by CLSI based broth dilution method; format: functional; conditions: time 16-18 hrs
EMT6 [37] = experiment: Antitumor activity against mouse EMT6 cells xenografted in BALB/c mouse model assessed as tumor weight at 10 mg/kg,ip administered every 3 days for 14 consecutive days (reference value: 1.53 +/-0.26g); format: functional; conditions: time 14 day
Staphylococcus aureus [38] = experiment: Antibacterial activity against methicillin-resistant Staphylococcus aureus ATCC 43300 incubated for 16 to 18 hrs by CLSI based broth dilution method; format: functional; conditions: time 16-18 hrs
Staphylococcus aureus [39] = experiment: Antibacterial activity against Staphylococcus aureus ATCC 29213 incubated for 16 to 18 hrs in absence of human plasma by CLSI based broth dilution method; format: functional; conditions: time 16-18 hrs
Acinetobacter baumannii [40] = experiment: Antibacterial activity against Acinetobacter baumannii 20-1 incubated for 16 to 18 hrs by CLSI based broth dilution method; format: functional; conditions: time 16-18 hrs
[41] = Toxicity in BALB/c mouse xenografted with mouse EMT6 cells at 5 mg/kg, ip administered every 3 days for 14 consecutive days; format: organism-based; conditions: in vivo, 336 h, time 14 day

Structure (SMILES): Nc1nc(N)c2c(ccc3c2ccn3Cc2nc3ccccc3s2)n1
- MIC (Klebsiella pneumoniae [1]): 2 µg/mL
- Activity (EMT6 [2]): 72.9%
- MIC (Acinetobacter baumannii [3]): 1 µg/mL (≈ 2.89 µM)
- MIC (Staphylococcus aureus [4]): 2 µg/mL
- MIC (Escherichia coli [5]): 0.03 µg/mL (≈ 0.0866 µM)
- MIC (Pseudomonas aeruginosa): > 64 µg/mL
- MIC (Staphylococcus aureus [6]): 0.06 µg/mL (≈ 0.173 µM)
- MIC (Escherichia coli [7]): > 64 µg/mL
- MIC (Enterococcus): ≤ 0.03 µg/mL
- IC50 (MCF7): 110 nM
- MIC (Enterococcus faecalis [8]): ≤ 0.03 µg/mL
- MIC (Enterococcus faecalis [9]): ≤ 0.004 µg/mL
- Activity (EMT6 [10]): 71.1%
- inhibition [11]: 96%
- Activity (EMT6 [12]): Dose-Dependent Effect
- MIC (Escherichia coli [13]): 1 µg/mL
- Activity [14]: 15.1 g
- Activity [15]: 14.3 g
- MIC (Staphylococcus aureus [16]): ≤ 0.03 µg/mL
- MIC (Staphylococcus aureus [17]): ≤ 0.03 µg/mL
- MIC (Staphylococcus aureus [18]): ≤ 0.03 µg/mL
- MIC (Acinetobacter baumannii [19]): 1 µg/mL (≈ 2.89 µM)
- MIC (Staphylococcus aureus [20]): 0.016 µg/mL (≈ 0.0462 µM)
- MIC (Staphylococcus aureus [21]): ≤ 0.03 µg/mL
- MIC (Staphylococcus aureus [22]): 0.25 µg/mL (≈ 0.722 µM)
- MIC (Enterococcus faecalis [23]): ≤ 0.03 µg/mL
- Activity (EMT6 [24]): 0.41 g
- MIC (Staphylococcus aureus [25]): ≤ 0.03 µg/mL
- MIC (Klebsiella pneumoniae [26]): 2 µg/mL
- IC50 (HGC-27): 1 nM
- MIC [27]: ≤ 0.004 µg/mL
- IC50 (HCT-116): 2 nM
- MIC (Staphylococcus aureus [28]): 0.06 µg/mL (≈ 0.173 µM)
- Activity [29]: 18.6 g
- Activity (Staphylococcus aureus [30]): Active
- IC50 (HepG2): 34 nM
- MIC (Acinetobacter baumannii [31]): 1 µg/mL
- Activity (Escherichia coli [32]): Active
- MIC (Escherichia coli [33]): 0.03 µg/mL (≈ 0.0866 µM)
- MIC (Escherichia coli [34]): > 64 µg/mL
- Activity [35]: 18.5 g
- MIC (Staphylococcus aureus [36]): 1 µg/mL
- Activity (EMT6 [37]): 0.44 g
- MIC (Staphylococcus aureus [38]): 0.016 µg/mL (≈ 0.0462 µM)
- MIC (Staphylococcus aureus [39]): 0.06 µg/mL (≈ 0.173 µM)
- MIC (Acinetobacter baumannii [40]): 16 µg/mL (≈ 46.2 µM)
- Activity [41]: Non-Toxic
